Source: paper PMC3843672, “Resistance to Degradation and Cellular Distribution are Important Features for the Antitumor Activity of Gomesin” (PLoS ONE, 2013)
Where a SMILES comes first, the peptide text is derived from it. [ ]: non-standard residue; d: D form. d(pGlu) = O=C1CC[C@H](C(=O)O)N1; pGlu = O=C1CC[C@@H](C(=O)O)N1

What was measured:
[1] = tested on: B16 F10 mouse melanoma cell line; assay type: cell-based; details: 24 h
Experimental: B16 F10 mouse melanoma cell line was cultured in RPMI medium supplemented with 10% fetal bovine serum (FBS; Gibco, USA), 10 U/ml penicillin and 10 µg/ml streptomycin. Cells were cultured in a humidified incubator containing 2.5% CO2 at 37°C.
B16 cells were incubated in 96-well microtiter plates in RPMI medium supplemented with 10% FBS until reach the semi-confluence and then treated with different concentrations of Gm and its analogues for 24 h. To investigate the mechanisms of Gm-induced cell death, B-16 cells were also pre-incubated with 40 µM cytochalasin D (Tocris, USA); 20 µM necrostatin-1 (Tocris, USA), 10 µM Z-VAD (Tocris, USA), 5 mM MβCD (Tocris, USA), and 100 µM chloroquine (Tocris, USA) for 1 h. Cell viability was determined using the standard reduction of the tetrazolium salt 3-(4,5-dimethylthiazol-2-yl)-2,5-diphenyltetrazolium bromide (MTT). The results were expressed relative to control cell viability (100%).

[2] = tested on: B16 cells; test: Peptide internalized into cells, biotinylated peptides, flow cytometry; assay type: cell-based, mouse; details: for internal presence of peptide after 24 h: 2 µM biotinylated peptides; for Max. Internal Fluorescence: biotinylated peptides used, 2 µM, B16 cells, streptavidin-Alexa 647 (FL4) after fixation and saponin permeabilization, maximum over time course, mean ± SEM, three independent experiments
Experimental: Cells were treated with the 2 µM biotinylated peptide. Then, the melanoma cells (5×10^5 for flow cytometry or 5×10^3 cell seeded for confocal microscopy) were labeled with streptavidin-Alexa 488 (Invitrogen, USA) for 30 min at 4°C and washed with PBS. The cells were fixed with a solution of 2% paraformaldehyde for 30 min, washed with 0.1 M glycin, and permeabilized with 0.01% saponin. Then, the cells were labeled with streptavidin-Alexa 647 (Invitrogen, USA). For flow cytometry, the cells were extracted using PBS with 5 mM EDTA previously to fixation. The quantification of label of external biotynilated peptide, and intracellular peptide were performed by flow cytometry or confocal microscopy. For flow cytometry the cells were excited using argon laser (488 nm), and diode laser (633 nm). The emission was collected in FL-1 and FL-4 channel. A total of 10,000 events were collected per sample. For confocal microscopy, nuclei were stained with DAPI. Confocal microscopy analyses were performed with a confocal laser scanning microscope equipped with a Plan-Apochromat ×63 objective under oil immersion (Zeiss, LSM780). The pinhole device was adjusted to capture fluorescence of one airy unit. The images correspond to single focal plane. Streptavidin-Alexa Fluor 488 were excited using an argon laser (λEx. = 488 nm, λEm. = 505–550 nm), streptavidin-Alexa Fluor 647 was excited using a HeNe laser (λEx. = 633 nm, λEm. = 640–710 nm) and DAPI was excited using a multiphoton laser (Coherent) (λEx. = 750 nm, λEm. = 380–460 nm). Unviable cells were excluded with propidium iodide (PI) label.
We quantified the Gm and analogues binding to the cellular membrane, and their internalization using their biotinylated counterpart. […] Unviable cells were excluded by PI label (Figure S2). External peptides labeled with streptavidin Alexa Fluor 488 were identified for the quantification of the green fluorescence (FL1 channel), and internal peptides labeled with streptavidin Alexa Fluor 647 were identified for the quantification of the deep red fluorescence (FL4 channel), after permeabilization of cellular membrane, by Flow cytometry. […] On the other hand, the peptides that present lower cytotoxicity were not retained after 24 h (Figure 3A-F). However, a direct relation between binding, peptide entrance, and cytotoxicity effect was not full observed, the entrance into cells seem to be important to the action of several AMPs. To verify the participation of the entry of peptide with cytotoxicity cholesterol level cholesterol level was reduced incubating the cells with MβCD for 1 h, which increase the membrane fluidity. As expected, the treatment of the cells with MβCD increases the entry of peptide (Figure 3G) and increases the cytotoxicity of the peptides, except the analogue [Thr^2,6,11,15]-Gm (Figure 3H).

[3] = Resistance to degradation by lysosomal enzymes (LC/ESI-MS); assay type: in vitro ADME; details: 37°C; for resistance to lysosomal enzyme degradation (in words): sonicated cells, pH 5 Tris buffer, different times, LC/ESI-MS (Figure 2B); for Peptide Degradation: sonicated cultured cells in pH 5 Tris buffer (lysosomal enzymes), incubation 1–14 h, starting peptide concentration 10^−4 M taken as 100%, LC/ESI-MS, mean ± SEM
Experimental: The cultured cells were resuspended using pH 5 Tris buffer, and then sonicated. Protein concentration was measured using the RC DC protein assay kit (Bio-Rad, CA, USA) according to the manufacturer’s instructions. The peptides were incubated with this protein solution for 1–14 h, and its stability was evaluated by reversed-phase liquid chromatography coupled with an electrospray ionization mass spectrometer (LC/ESI-MS).
Figure 2 Lysosomal enzymes participate in the cytotoxic reduction activities of the Gm analogues. (A, C and D) Cell viability was assessed by the MTT reduction test. (A) Cells were incubated with cytoskeletal inhibitor (cytochalasin D), and lysosomal inhibitor (chloroquine) for 1 h before to stimulation by Gm, and its analogues for 24 h. Chloroquine potentiated the cytotoxicity of peptides. (B) Since chloroquine was able to potentiate the cytotoxicity of the peptides, resistance to degradation of lysosomal enzymes was evaluated by LC/ESI-MS. Peptides were incubated at 37°C for different times. (C) Cells were incubated with the IC50 concentration for each peptide. Cytotoxic activities after 24 and 72 h of the peptide incubation were compared.

internal presence of peptide after 24 h [2] | Compound | IC50 [1] | Max. Internal Fluorescence [2] | resistance to lysosomal enzyme degradation (in words) [3] | Peptide Degradation [3] | fold less potent than Gm ([1]; B16 cells, MTT, ratio of potencies)
internal presence | CC(C)C[C@@H](NC(=O)[C@@H](CCCNC(=N)N)NC(=O)[C@@H](CCCNC(=N)N)NC(=O)[C@H](NC(=O)[C@H]1CCC(=O)N1)[C@H](C)O)C(=O)N[C@@H](C(=O)N[C@H](Cc1ccc(O)cc1)C(=O)N[C@H](CCCCN)C(=O)N1CCC[C@H]1C(=O)N[C@H](CCCNC(=N)N)C(=O)N[C@@H](C(=O)N[C@@H](C(=O)N[C@@H](C(=O)N[C@H](Cc1ccc(O)cc1)C(=O)N[C@@H](C(=O)N[C@H](CCCNC(=N)N)C(=O)NCC(=O)N[C@H](CCCNC(=N)N)C(N)=O)[C@H](C)O)[C@H](C)O)C(C)C)[C@H](C)O)[C@H](C)O [[D-Thr^2,6,11,15, Pro^9]-D-Gm] ([d(pGlu)][dT][dR][dR][dL][dT][dY][dK]P[dR][dT][dV][dT][dY][dT][dR]G[dR]-NH2) | 75 µM | 2751±190 AU | little affected by lysosomal enzymes | 15±2% | –
– | CC(C)C[C@H](NC(=O)[C@H](CCCNC(=N)N)NC(=O)[C@H](CCCNC(=N)N)NC(=O)[C@H](CO)NC(=O)[C@@H]1CCC(=O)N1)C(=O)N[C@@H](CO)C(=O)N[C@@H](Cc1ccc(O)cc1)C(=O)N[C@@H](CCCCN)C(=O)N[C@@H](CCC(N)=O)C(=O)N[C@@H](CCCNC(=N)N)C(=O)N[C@@H](CO)C(=O)N[C@H](C(=O)N[C@H](C(=O)N[C@@H](Cc1ccc(O)cc1)C(=O)N[C@@H](CO)C(=O)N[C@@H](CCCNC(=N)N)C(=O)NCC(=O)N[C@@H](CCCNC(=N)N)C(N)=O)[C@@H](C)O)C(C)C [[Ser^2,6,11,15]-Gm] ([pGlu]SRRLSYKQRSVTYSRGR-NH2) | > 200 µM | 305±65 AU | most sensitive peptides to degradation | 47±5% | –
internal presence | CC(C)C[C@H](NC(=O)[C@H](CCCNC(=N)N)NC(=O)[C@H](CCCNC(=N)N)NC(=O)[C@@H](NC(=O)[C@@H]1CCC(=O)N1)[C@@H](C)O)C(=O)N[C@H](C(=O)N[C@@H](Cc1ccc(O)cc1)C(=O)N[C@@H](CCCCN)C(=O)N1CCC[C@@H]1C(=O)N[C@@H](CCCNC(=N)N)C(=O)N[C@H](C(=O)N[C@H](C(=O)N[C@H](C(=O)N[C@@H](Cc1ccc(O)cc1)C(=O)N[C@H](C(=O)N[C@@H](CCCNC(=N)N)C(=O)NCC(=O)N[C@@H](CCCNC(=N)N)C(N)=O)[C@@H](C)O)[C@@H](C)O)C(C)C)[C@@H](C)O)[C@@H](C)O [[Thr^2,6,11,15, D-Pro^9]-Gm] ([pGlu]TRRLTYK[dP]RTVTYTRGR-NH2) | 90 µM | 1165±27 AU | stable to enzymatic degradation | 16±1% | –
– | CC(C)C[C@H](NC(=O)[C@H](CCCNC(=N)N)NC(=O)[C@H](CCCNC(=N)N)NC(=O)[C@@H](NC(=O)[C@@H]1CCC(=O)N1)[C@@H](C)O)C(=O)N[C@H](C(=O)N[C@@H](Cc1ccc(O)cc1)C(=O)N[C@@H](CCCCN)C(=O)N[C@@H](CCC(N)=O)C(=O)N[C@@H](CCCNC(=N)N)C(=O)N[C@H](C(=O)N[C@H](C(=O)N[C@H](C(=O)N[C@@H](Cc1ccc(O)cc1)C(=O)N[C@H](C(=O)N[C@@H](CCCNC(=N)N)C(=O)NCC(=O)N[C@@H](CCCNC(=N)N)C(N)=O)[C@@H](C)O)[C@@H](C)O)C(C)C)[C@@H](C)O)[C@@H](C)O [[Thr^2,6,11,15]-Gm] ([pGlu]TRRLTYKQRTVTYTRGR-NH2) | > 200 µM | 753±175 AU | most sensitive peptides to degradation | 43±4% | –

Compound | internal presence of peptide after 24 h [2] | IC50 [1] | Max. Internal Fluorescence [2] | resistance to lysosomal enzyme degradation (in words) [3] | Peptide Degradation [3] | fold less potent than Gm ([1]; B16 cells, MTT, ratio of potencies)
CC(C)C[C@@H](NC(=O)[C@@H](CCCNC(=N)N)NC(=O)[C@@H](CCCNC(=N)N)NC(=O)[C@H](NC(=O)[C@H]1CCC(=O)N1)[C@H](C)O)C(=O)N[C@@H](C(=O)N[C@H](Cc1ccc(O)cc1)C(=O)N[C@H](CCCCN)C(=O)N[C@H](CCC(N)=O)C(=O)N[C@H](CCCNC(=N)N)C(=O)N[C@@H](C(=O)N[C@@H](C(=O)N[C@@H](C(=O)N[C@H](Cc1ccc(O)cc1)C(=O)N[C@@H](C(=O)N[C@H](CCCNC(=N)N)C(=O)NCC(=O)N[C@H](CCCNC(=N)N)C(N)=O)[C@H](C)O)[C@H](C)O)C(C)C)[C@H](C)O)[C@H](C)O [[D-Thr^2,6,11,15]-D-Gm] ([d(pGlu)][dT][dR][dR][dL][dT][dY][dK][dQ][dR][dT][dV][dT][dY][dT][dR]G[dR]-NH2) | internal presence | 25 µM | 602±12 AU | little affected by lysosomal enzymes | 12±2% | 3.5 fold
